Counter-ions that a name gives are not always drawn. Bounds are passed on as bounds.

T1 sequence (Q9Y5N1 whole entry): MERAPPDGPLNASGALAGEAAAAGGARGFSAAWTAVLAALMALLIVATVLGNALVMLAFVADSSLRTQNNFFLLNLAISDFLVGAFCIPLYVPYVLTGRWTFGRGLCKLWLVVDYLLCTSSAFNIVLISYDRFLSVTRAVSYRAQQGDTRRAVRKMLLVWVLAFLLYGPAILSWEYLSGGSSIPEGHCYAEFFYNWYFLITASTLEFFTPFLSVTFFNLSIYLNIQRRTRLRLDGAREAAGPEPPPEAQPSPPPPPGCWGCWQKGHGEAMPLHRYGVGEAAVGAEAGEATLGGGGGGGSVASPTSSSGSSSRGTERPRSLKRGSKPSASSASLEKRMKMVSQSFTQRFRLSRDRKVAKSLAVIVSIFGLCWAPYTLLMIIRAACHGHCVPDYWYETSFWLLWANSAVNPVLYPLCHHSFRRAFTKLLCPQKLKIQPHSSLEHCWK

The test has as its target T1, Human Histamine H3 Receptor (Homo sapiens, UniProt Q9Y5N1).
T1 construct: expressed in transfected cells; host or cells: HEK293T cells, stably transfected; membrane preparation
The test is described as follows: Methyl histamine binding in human histamine H3 receptor cell line. The following applies: membranes of stably transfected HEK293T cells; radioligand 1 nM; Ki from IC50 by Cheng-Prusoff. As to the method: Evaluation of Methyl Histamine Binding in Human Histamine H3 Receptor Cell Line
The affinity of test compounds for the histamine 3 (H3) receptor is evaluated in the following manner. Stably transfected HEK293T cells are grown in DMEM containing 10% heat inactivated FBS and G-418 (500 ug/ml). Cells are scraped from the plate, transferred to centrifuge tubes, washed one time in PBS by centrifugation in a Sorvall RT7 Plus centrifuge (2000 rpm 10 minutes, 4° C.). The resulting pellets are stored at −80° C. until ready for use. Cells are re-suspended in buffer (50 mM Tris pH=7.5) and placed in a Dounce homogenizer, douncing ten times to homogenize cells. The homogenate is spun down by centrifugation (Sorvall RT7 Plus, 1800 rpm 10 minutes, 4° C.). The supernatant is placed in a Corex tube and spun down by centrifugation (Sorvall RC 5c Plus, 17,000 rpm 20 minutes, 4° C.). The pellet is resuspended in buffer (50 mM Tris, pH 7.5). Protein concentration (ug/ul) is determined using the Micro-BCA Protein Determination. The binding assay is set up in a 96 well microtiter plate in a total volume of 250 uL. Non-specific binding is determined in the presence of 10 uM clobenpropit. The final radioligand concentration is 1 nM. The test compound is serially diluted using the Beckman Biomek2000 to a final approximate range of 100 uM to 100 pM. Membranes are suspended in buffer, homogenized in 2 bursts of ten seconds using a Vitris mechanical homogenizer set at power setting 5. Ten μg of membranes are added to each well. Following a one hour incubation at 30° C., the reaction is terminated by the addition of ice cold buffer and rapid filtration with a Packard Filtermate Harvester through a GF/B filter pre-soaked with 1% PEI for one hour. The plate is dried for one hour at 37° C. and 60 μL Microscint Scintillant is added to each well. The CPM per well is measured on a Packard Top Count NXT. Ki values are determined in nM. The Ki is calculated from the IC50 (i.e. the concentration of competing ligand which displaces 50% of the specific binding of the radioligand). CPM values are expressed as % specific binding and plotted vs compound concentration. A curve is fitted using a four-parameter logistic fit and the IC50 value is determined. The Ki is calculated from this using the Cheng-Prusoff equation: […]=IC50/1+(L/Kd) where L=concentration of free radioligand used in the assay, and Kd is the dissociation constant of the radioligand for the receptor. L is determined for each experiment by counting an aliquot of the diluted radioligand (corresponding to that added to each well) and the Kd has previously been determined under identical conditions for this cell line/radioligand.
The term Ki denotes the equilibrium dissociation constant of an inhibitor or competing ligand from its target. The low end stands for tighter binding, the high end for weaker binding. Turning to `O=C(NC1CCC1)c1ccc(Oc2ccc3c(c2)CCN(C2CCN(C4CCC4)CC2)C3=O)cc1` [Example 8, N-Cyclobutyl-4-{[2-(1-cyclobutylpiperidin-4-yl)-1-oxo-1,2,3,4-tetrahydroisoquinolin-6-yl]oxy}benzamide], the inhibition constant (Ki) is no more than 10 nM.

Consider `CNC(=O)c1ccc(COc2ccc3c(c2)CCN(C2CCN(C4CCC4)CC2)C3=O)cc1` [Example 16, 4-({[2-(1-Cyclobutylpiperidin-4-yl)-1-oxo-1,2,3,4-tetrahydroisoquinolin-6-yl]oxy}methyl)-N-methylbenzamide], for which the inhibitory constant (Ki) is no more than 10 nM.

With `CN1CC[C@@H](N2CCc3cc(-c4ccc(C(=O)N5CCCC5)cc4)ccc3C2=O)C1` [Example 55, 2-[(3R)-1-methylpyrrolidin-3-yl]-6-[4-(pyrrolidin-1-ylcarbonyl)phenyl]-3,4-dihydroisoquinolin-1(2H)-one], the Ki was in the range of 50.1 to 100 nM.

Compound `O=C(c1ccc(-c2ccc3c(c2)CCN([C@@H]2CCN(C4CCC4)C2)C3=O)cc1Cl)N1CCCC1` [Example 49, 6-[3-chloro-4-(pyrrolidin-1-ylcarbonyl)phenyl]-2-[(3R)-1-cyclobutylpyrrolidin-3-yl]-3,4-dihydroisoquinolin-1(2H)-one] gave a Ki of no more than 10 nM.

Take `CCNC(=O)c1ccc(Oc2ccc3c(c2)CCN(C2CCN(C4CCC4)CC2)C3=O)cc1` [Example 5, 4-{[2-(1-Cyclobutylpiperidin-4-yl)-1-oxo-1,2,3,4-tetrahydroisoquinolin-6-yl]oxy}-N-ethylbenzamide]: the Ki was no more than 10 nM.

For `N#Cc1ccc(-c2ccc3c(c2)CN(C2CCN(C4CCCC4)CC2)C3=O)cc1` [Example 29, 4-[2-(1-Cyclopentylpiperidin-4-yl)-1-oxo-2,3-dihydro-1H-isoindol-5-yl]benzonitrile], the inhibition constant Ki is 10.1 to 25 nM.

Regarding `O=C(NC1CCCC1)c1ccc(-c2ccc3c(c2)CCN([C@@H]2CCN(C4CCC4)C2)C3=O)c(F)c1` [Example 80, 4-{2-[(3R)-1-cyclobutylpyrrolidin-3-yl]-1-oxo-1,2,3,4-tetrahydroisoquinolin-6-yl}-N-cyclopentyl-3-fluorobenzamide], the inhibition constant (Ki) was no more than 10 nM.

As to `O=C(c1ccc(-c2ccc3c(c2)CCN([C@@H]2CCN(Cc4ccco4)C2)C3=O)cc1)N1CCCC1` [Example 61, 2-[(3R)-1-(furan-2-ylmethyl)pyrrolidin-3-yl]-6-[4-(pyrrolidin-1-ylcarbonyl)phenyl]-3,4-dihydroisoquinolin-1(2H)-one], the Ki is greater than 100 nM.

`CNC(=O)c1ccc(-c2ccc3c(c2)CCN([C@@H]2CCN(C4CCC4)C2)C3=O)c(F)c1` [Example 75, 4-{2-[(3R)-1-cyclobutylpyrrolidin-3-yl]-1-oxo-1,2,3,4-tetrahydroisoquinolin-6-yl}-3-fluoro-N-methylbenzamide]: the Ki was no more than 10 nM.

In turn, `O=C(c1ccc(-c2ccc3c(c2)CN([C@@H]2CCN(C4CCC4)C2)C3=O)cc1)N1CCCC1` [Example 92, (R)-2-(1-cyclobutylpyrrolidin-3-yl)-5-(4-(pyrrolidine-1-carbonyl)-phenyl)isoindolin-1-one hydrochloride] returned a Ki of no more than 10 nM.

`CN(C)C(=O)c1ccc(COc2ccc3c(c2)CCN(C2CCN(C4CCC4)CC2)C3=O)cc1` [Example 18, 4-({[2-(1-Cyclobutylpiperidin-4-yl)-1-oxo-1,2,3,4-tetrahydroisoquinolin-6-yl]oxy}methyl)-N,N-dimethylbenzamide] registered a Ki of no more than 10 nM.

`CCNC(=O)c1ccc(COc2ccc3c(c2)CCN(C2CCN(C4CCC4)CC2)C3=O)cc1` [Example 17, 4-({[2-(1-Cyclobutylpiperidin-4-yl)-1-oxo-1,2,3,4-tetrahydroisoquinolin-6-yl]oxy}methyl)-N-ethylbenzamide] came in with a Ki of no more than 10 nM.

`CCNC(=O)c1ccc(-c2ccc3c(c2)CCN([C@@H]2CCN(C4CCC4)C2)C3=O)c(F)c1` [Example 77, 4-{2-[(3R)-1-cyclobutylpyrrolidin-3-yl]-1-oxo-1,2,3,4-tetrahydroisoquinolin-6-yl}-N-ethyl-3-fluorobenzamide] gave a Ki of no more than 10 nM.

`CCNC(=O)c1ccc(Oc2ccc3c(c2)CCN([C@@H]2CCN(C4CCCC4)C2)C3=O)cc1` [Example 38, 4-({2-[(3R)-1-cyclopentylpyrrolidin-3-yl]-1-oxo-1,2,3,4-tetrahydroisoquinolin-6-yl}oxy)-N-ethylbenzamide]: the inhibitory constant (Ki) was in the range of 10.1 to 25 nM.

For the compound `CC(C)N1CC[C@@H](N2CCc3cc(-c4ccc(C(=O)N5CCCC5)cc4F)ccc3C2=O)C1` [Example 84, 6-[2-fluoro-4-(pyrrolidin-1-ylcarbonyl)phenyl]-2-[(3R)-1-isopropylpyrrolidin-3-yl]-3,4-dihydroisoquinolin-1(2H)-one], the Ki was no more than 10 nM.

The compound `CNC(=O)c1ccc(-c2ccc3c(c2)CCN(C2CCN(C4CCC4)C2)C3=O)cc1` (stereo in doubt) [Example 90, (R)-4-(2-(1-cyclobutylpyrrolidin-3-yl)-1-oxo-1,2,3,4-tetrahydro-isoquinolin-6-yl)-N-methylbenzamide hydrochloride] came in with an inhibitory constant (Ki) of no more than 10 nM.

Consider `N#Cc1ccc(-c2ccc3c(c2)CN(C2CCN(CC4CC4)CC2)C3=O)cc1` [Example 26, 4-{2-[1-(Cyclopropylmethyl)piperidin-4-yl]-1-oxo-2,3-dihydro-1H-isoindol-5-yl}benzonitrile], for which the Ki fell in the range of 50.1 to 100 nM.

For the compound `O=C(c1ccc(Oc2ccc3c(c2)CCN([C@@H]2CCN(C4CCCC4)C2)C3=O)cc1)N1CCCC1` [Example 39, 2-[(3R)-1-cyclopentylpyrrolidin-3-yl]-6-[4-(pyrrolidin-1-ylcarbonyl)phenoxy]-3,4-dihydroisoquinolin-1(2H)-one], the Ki was no more than 10 nM.

`CCCN1CCC(N2Cc3cc(-c4ccc(C#N)cc4)ccc3C2=O)CC1` [Example 25, 4-[1-Oxo-2-(1-propylpiperidin-4-yl)-2,3-dihydro-1H-isoindol-5-yl]benzonitrile] showed a Ki greater than 100 nM.

Compound `CNC(=O)c1ccc(-c2ccc3c(c2)CCN([C@@H]2CCN(C4CCCC4)C2)C3=O)cc1` [Example 41, 4-{2-[(3R)-1-cyclopentylpyrrolidin-3-yl]-1-oxo-1,2,3,4-tetrahydroisoquinolin-6-yl}-N-methylbenzamide] returned a Ki of no more than 10 nM.

`N#Cc1ccc(-c2ccc3c(c2)CN(C2CCN(C4CCC4)CC2)C3=O)cc1` [Example 28, 4-[2-(1-Cyclobutylpiperidin-4-yl)-1-oxo-2,3-dihydro-1H-isoindol-5-yl]benzonitrile]: the inhibitory constant (Ki) was 25.1 to 50 nM.

With `O=C(c1ccc(-c2ccc3c(c2)CCN([C@@H]2CCN(C4CCC4)C2)C3=O)cc1)N1CCCC1` [Example 47, 2-[(3R)-1-cyclobutylpyrrolidin-3-yl]-6-[4-(pyrrolidin-1-ylcarbonyl)phenyl]-3,4-dihydroisoquinolin-1(2H)-one], the Ki was no more than 10 nM.

`O=C(c1ccc(Oc2ccc3c(c2)CCN([C@@H]2CCN(C4CCC4)C2)C3=O)cc1)N1CCCC1` [Example 35, 2-[(3R)-1-cyclobutylpyrrolidin-3-yl]-6-[4-(pyrrolidin-1-ylcarbonyl)phenoxy]-3,4-dihydroisoquinolin-1(2H)-one] came in with an inhibition constant Ki of 10.1 to 25 nM.

Consider `CN(C)C(=O)c1ccc(-c2ccc3c(c2)CCN([C@@H]2CCN(C4CCC4)C2)C3=O)c(F)c1` [Example 78, 4-{2-[(3R)-1-cyclobutylpyrrolidin-3-yl]-1-oxo-1,2,3,4-tetrahydroisoquinolin-6-yl}-3-fluoro-N,N-dimethylbenzamide], for which the Ki is no more than 10 nM.

`CNC(=O)c1ccc(-c2ccc3c(c2)CCN([C@@H]2CCN(C4CCC4)C2)C3=O)cc1` [Example 44, 4-{2-[(3R)-1-cyclobutylpyrrolidin-3-yl]-1-oxo-1,2,3,4-tetrahydroisoquinolin-6-yl}-N-methylbenzamide] displayed a Ki of no more than 10 nM.

On to `CN(C)C(=O)c1ccc(-c2ccc3c(c2)CCN([C@@H]2CCN(C4CCC4)C2)C3=O)cc1` [Example 46, 4-{2-[(3R)-1-cyclobutylpyrrolidin-3-yl]-1-oxo-1,2,3,4-tetrahydroisoquinolin-6-yl}-N,N-dimethylbenzamide], for which the Ki is no more than 10 nM.

The compound `CNC(=O)c1ccc(Oc2ccc3c(c2)CCN(C2CCN(C4CCC4)CC2)C3=O)cc1` [Example 4, 4-{[2-(1-Cyclobutylpiperidin-4-yl)-1-oxo-1,2,3,4-tetrahydroisoquinolin-6-yl]oxy}-N-methylbenzamide] showed an inhibition constant (Ki) of no more than 10 nM.

The values above are taken from patent US20090069370A1, “AZACYCLYLISOQUINOLINONE AND ISOINDOLINONE DERIVATIVES AS HISTAMINE-3 ANTAGONISTS” (Wyeth, priority 2007, published 2009).
